Results: BindingDB's records for doi:10.1007/bf00506193 (1984)

Molecular target: T1, Alpha-1A adrenergic receptor (Rattus norvegicus, UniProt P43140)
T1 sequence (P43140 whole entry): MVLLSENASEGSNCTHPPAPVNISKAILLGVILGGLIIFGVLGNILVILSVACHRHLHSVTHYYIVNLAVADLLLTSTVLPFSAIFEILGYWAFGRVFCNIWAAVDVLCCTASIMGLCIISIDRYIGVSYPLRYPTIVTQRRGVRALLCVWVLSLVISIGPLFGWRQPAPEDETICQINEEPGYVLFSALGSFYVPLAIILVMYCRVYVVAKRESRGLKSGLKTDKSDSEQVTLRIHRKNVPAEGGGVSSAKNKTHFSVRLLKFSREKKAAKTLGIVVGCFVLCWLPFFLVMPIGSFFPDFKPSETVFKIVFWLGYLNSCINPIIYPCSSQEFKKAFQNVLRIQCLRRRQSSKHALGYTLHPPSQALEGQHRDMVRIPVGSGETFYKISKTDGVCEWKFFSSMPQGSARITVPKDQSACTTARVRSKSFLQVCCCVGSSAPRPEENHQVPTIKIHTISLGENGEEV

c1ccc2c(c1)OCC(C1=NCCN1)O2 (stereo unspecified)
Ki: 91 nM
